{"source": "ChEMBL document CHEMBL1158343", "about": "“Synthesis, antimicrobial and antiviral evaluation of substituted imidazole derivatives” (Eur J Med Chem, 2009)", "data": [{"test_system": "Vaccinia virus", "assay": "Antiviral activity against Vaccinia virus infected in human HEL cells assessed as reduction in virus-induced cytopathogenicity after 3 days", "format": "functional, organism-based", "settings": "Orthopoxvirus vaccinia, 72 h", "units": {"EC50": "µg/mL"}, "values": [{"smiles": "O=C(c1ccc([N+](=O)[O-])cc1)n1ccnc1-c1ccc([N+](=O)[O-])cc1", "EC50": 4}, {"smiles": "O=C(c1ccc([N+](=O)[O-])cc1)n1ccnc1-c1cccc([N+](=O)[O-])c1", "EC50": "> 100"}, {"smiles": "O=C(c1ccccc1Br)n1ccnc1-c1ccc([N+](=O)[O-])cc1", "EC50": "> 100"}, {"smiles": "O=C(c1ccc([N+](=O)[O-])cc1)n1ccnc1-c1ccccc1Cl", "EC50": "> 100"}, {"smiles": "NC(=O)c1ncn([C@@H]2O[C@H](CO)[C@@H](O)[C@H]2O)n1", "note": "[RIBAVIRIN]", "EC50": "> 250"}, {"smiles": "O=C(O)c1ccccc1-c1nccn1C(=O)c1ccc([N+](=O)[O-])cc1", "EC50": "> 100"}, {"smiles": "Nc1nc2c(ncn2COC(CO)CO)c(=O)[nH]1", "note": "[GANCICLOVIR]", "EC50": "> 100"}, {"smiles": "O=C(c1ccc([N+](=O)[O-])cc1)n1ccnc1-c1ccccc1[N+](=O)[O-]", "EC50": "> 100"}, {"smiles": "O=C(c1ccccc1Br)n1ccnc1-c1ccc(Cl)cc1", "EC50": "> 100"}, {"smiles": "O=C(c1ccccc1Br)n1ccnc1-c1ccccc1Cl", "EC50": "> 100"}, {"smiles": "Nc1ccn(C[C@@H](CO)OCP(=O)(O)O)c(=O)n1.O.O", "note": "[CIDOFOVIR]", "EC50": 7}, {"smiles": "O=c1[nH]c(=O)n([C@H]2C[C@H](O)[C@@H](CO)O2)cc1/C=C/Br", "note": "[BRIVUDINE]", "EC50": 5}, {"smiles": "COc1ccc(-c2nccn2C(=O)c2ccc([N+](=O)[O-])cc2)cc1", "EC50": "> 100"}, {"smiles": "COc1ccc(-c2nccn2C(=O)c2ccccc2Br)cc1", "EC50": "> 100"}, {"smiles": "O=C(c1ccc([N+](=O)[O-])cc1)n1ccnc1-c1cccc(Cl)c1", "EC50": 45}, {"smiles": "O=C(c1ccc([N+](=O)[O-])cc1)n1ccnc1-c1ccc(Cl)cc1", "EC50": 2}, {"smiles": "O=C(c1ccccc1Br)n1ccnc1-c1cccc([N+](=O)[O-])c1", "EC50": "> 100"}, {"smiles": "O=C(c1ccccc1Br)n1ccnc1-c1ccccc1[N+](=O)[O-]", "EC50": "> 100"}]}]}
